{"source": "patent US8895750B2", "about": "“Heteroaromatic compounds as BTK inhibitors” (Boehringer Ingelheim International GmbH, priority 2013, dated 2014)", "biological_target": "T1, full-length human His-tagged BTK (Homo sapiens, UniProt Q06187)", "T1 construct": "6 nM of full-length human His-tagged BTK (Life Technologies cat #PV3587); His; purchased Life Technologies PV3587", "T1 sequence (Q06187 whole entry)": "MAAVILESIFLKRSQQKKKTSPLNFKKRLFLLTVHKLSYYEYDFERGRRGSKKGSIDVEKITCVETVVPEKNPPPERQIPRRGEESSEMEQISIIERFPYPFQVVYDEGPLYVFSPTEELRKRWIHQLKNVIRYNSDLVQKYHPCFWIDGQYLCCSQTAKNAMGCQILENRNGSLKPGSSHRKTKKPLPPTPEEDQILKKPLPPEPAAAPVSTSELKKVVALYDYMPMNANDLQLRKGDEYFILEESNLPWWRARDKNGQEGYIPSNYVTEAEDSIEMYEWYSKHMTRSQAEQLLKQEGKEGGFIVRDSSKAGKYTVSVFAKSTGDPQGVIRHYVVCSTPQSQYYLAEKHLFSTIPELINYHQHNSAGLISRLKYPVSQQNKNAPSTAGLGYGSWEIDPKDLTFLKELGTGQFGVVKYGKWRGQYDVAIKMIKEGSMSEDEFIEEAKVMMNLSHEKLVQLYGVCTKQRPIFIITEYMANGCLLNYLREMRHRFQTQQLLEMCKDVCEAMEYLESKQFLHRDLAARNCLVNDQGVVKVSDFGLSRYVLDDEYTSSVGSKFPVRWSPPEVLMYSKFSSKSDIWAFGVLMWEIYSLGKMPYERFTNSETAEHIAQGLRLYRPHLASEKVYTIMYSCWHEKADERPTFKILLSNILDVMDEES", "experiment": "BTK HTRF assay (Cisbio KinEASE-TK)", "assay_type": "biochemical", "details": "6 nM BTK, 15 min preincubation at 28° C., 1 uM TK substrate-biotin, 30 uM ATP", "method": "An HTRF assay (Cisbio KinEASE-TK cat #62TK0PEC) was performed to quantitate the ability of test compounds to inhibit BTK mediated phosphorylation of substrate. Assays were assembled in 384 well plates where 6 nM of full-length human His-tagged BTK (Life Technologies cat #PV3587) and test compound at varying concentrations were preincubated for 15 minutes at 28° C. Then, 1 uM of TK substrate-biotin and 30 uM ATP were added and incubated for an additional 30 minutes at 28° C. Phospohrylation was detected by adding 62.5 nM Streptavidin-XL665 and TK-Antibody Cryptate diluted 1:100 in HTRF detection buffer (Cisbio cat #62SDBRDF) and incubated for 60 minutes at RT. The plate was read on an Envision plate reader and the fluoresence is measured at 620 nm (cryptate) and 665 nm (XL665). A ratio is calculated (665/620) and converted to POC relative to control and blank wells.\n50 mM HEPES (Invitrogen #15630), 0.01% Brij-35 (sigma #B4184), 10 mM MgC12 (Sigma M1028), 1 mM EGTA (Ambion AM9262) and 100 uM sodium orthovanedate (Sigma S6508), 1 mM DTT (Sigma D5545) and 10 nM supplement enzyme buffer (Cisbio cat#61SEBALB).", "data": [{"smiles": "C=CC(=O)N1CCC2(C1)CN(c1nc(-c3ccc(Oc4ccccc4)cc3)c(C(N)=O)s1)C2", "note": "[Example 1]", "values": [{"measurement": "IC50", "result": 8.5, "unit": "nM"}]}, {"smiles": "C=CC(=O)N(C)C1CCN(c2nc(-c3ccc(Oc4ccccc4)cc3)c(C(N)=O)s2)CC1", "note": "[Example 2]", "values": [{"measurement": "IC50", "result": 4.8, "unit": "nM"}]}, {"smiles": "CC#CC(=O)N(C)C1CCN(c2nc(-c3ccc(Oc4ccccc4)cc3)c(C(N)=O)s2)CC1", "note": "[Example 3]", "values": [{"measurement": "IC50", "result": 2.6, "unit": "nM"}]}, {"smiles": "CC#CC(=O)N[C@@H]1CCCN(c2nc(-c3ccc(Oc4ccccc4)cc3)c(C(N)=O)s2)C1", "note": "[Example 4]", "values": [{"measurement": "IC50", "result": 95, "unit": "nM"}]}, {"smiles": "C=CC(=O)N[C@@H]1CCCN(c2nc(-c3ccc(Oc4ccccc4)cc3)c(C(N)=O)s2)C1", "note": "[Example 5]", "values": [{"measurement": "IC50", "result": 13, "unit": "nM"}]}, {"smiles": "C=CC(=O)N1CCN(c2nc(-c3ccc(Oc4ccccc4)cc3)c(C(N)=O)s2)CC1", "note": "[Example 6]", "values": [{"measurement": "IC50", "result": 0.3, "unit": "nM"}]}, {"smiles": "CC#CC(=O)N1CCN(c2nc(-c3ccc(Oc4ccccc4)cc3)c(C(N)=O)s2)CC1", "note": "[Example 7]", "values": [{"measurement": "IC50", "result": 0.67, "unit": "nM"}]}, {"smiles": "C=CC(=O)N1CC2(CCN(c3nc(-c4ccc(Oc5ccccc5)cc4)c(C(N)=O)s3)C2)C1", "note": "[Example 8]", "values": [{"measurement": "IC50", "result": 5.6, "unit": "nM"}]}, {"smiles": "CC#CC(=O)N1CC2(CCN(c3nc(-c4ccc(Oc5ccccc5)cc4)c(C(N)=O)s3)C2)C1", "note": "[Example 9]", "values": [{"measurement": "IC50", "result": 4.3, "unit": "nM"}]}, {"smiles": "CN(C)C/C=C/C(=O)N1CC2(CCN(c3nc(-c4ccc(Oc5ccccc5)cc4)c(C(N)=O)s3)C2)C1", "note": "[Example 10]", "values": [{"measurement": "IC50", "result": 110, "unit": "nM"}]}, {"smiles": "CC#CC(=O)N1CC2(C1)CN(c1nc(-c3ccc(Oc4ccccc4)cc3)c(C(N)=O)s1)C2", "note": "[Example 11]", "values": [{"measurement": "IC50", "result": 8.8, "unit": "nM"}]}, {"smiles": "C=CC(=O)N1CC2(C1)CN(c1nc(-c3ccc(Oc4ccccc4)cc3)c(C(N)=O)s1)C2", "note": "[Example 12]", "values": [{"measurement": "IC50", "result": 4.1, "unit": "nM"}]}, {"smiles": "CN(C)C/C=C/C(=O)N1CC2(C1)CN(c1nc(-c3ccc(Oc4ccccc4)cc3)c(C(N)=O)s1)C2", "note": "[Example 13]", "values": [{"measurement": "IC50", "result": 510, "unit": "nM"}]}, {"smiles": "C/C=C/C(=O)N1CC2(C1)CN(c1nc(-c3ccc(Oc4ccccc4)cc3)c(C(N)=O)s1)C2", "note": "[Example 14]", "values": [{"measurement": "IC50", "result": "> 1000", "unit": "nM"}]}, {"smiles": "NC(=O)c1sc(N2CC3(CN(C(=O)/C=C/CN4CCOCC4)C3)C2)nc1-c1ccc(Oc2ccccc2)cc1", "note": "[Example 15]", "values": [{"measurement": "IC50", "result": "> 1000", "unit": "nM"}]}, {"smiles": "CC#CC(=O)N1C[C@@H]2C[C@H]1CN2c1nc(-c2ccc(Oc3ccccc3)cc2)c(C(N)=O)s1", "note": "[Example 16]", "values": [{"measurement": "IC50", "result": 1.2, "unit": "nM"}]}, {"smiles": "C=CC(=O)N1CCN(c2nc(-c3ccc(Oc4ccccc4)cc3)c(C(N)=O)s2)[C@@H](C)C1", "note": "[Example 17]", "values": [{"measurement": "IC50", "result": 0.87, "unit": "nM"}]}, {"smiles": "CC#CC(=O)N1[C@@H]2CC[C@H]1CN(c1nc(-c3ccc(Oc4ccccc4)cc3)c(C(N)=O)s1)C2", "note": "[Example 18]", "values": [{"measurement": "IC50", "result": 0.62, "unit": "nM"}]}, {"smiles": "C=CC(=O)N1[C@@H]2CC[C@H]1CN(c1nc(-c3ccc(Oc4ccccc4)cc3)c(C(N)=O)s1)C2", "note": "[Example 19]", "values": [{"measurement": "IC50", "result": 0.48, "unit": "nM"}]}, {"smiles": "C[C@H](Cl)C(=O)N1CC2(C1)CN(c1nc(-c3ccc(Oc4ccccc4)cc3)c(C(N)=O)s1)C2", "note": "[Example 20]", "values": [{"measurement": "IC50", "result": 350, "unit": "nM"}]}, {"smiles": "CC#CC(=O)N1CCN(c2nc(-c3ccc(Oc4ccccc4)cc3)c(C(N)=O)s2)[C@@H](C)C1", "note": "[Example 21]", "values": [{"measurement": "IC50", "result": 1.2, "unit": "nM"}]}, {"smiles": "CN(C)C/C=C/C(=O)N1CCN(c2nc(-c3ccc(Oc4ccccc4)cc3)c(C(N)=O)s2)CC1", "note": "[Example 22]", "values": [{"measurement": "IC50", "result": 2, "unit": "nM"}]}, {"smiles": "C=CC(=O)N1CCCC12CCN(c1nc(-c3ccc(Oc4ccccc4)cc3)c(C(N)=O)s1)CC2", "note": "[Example 23]", "values": [{"measurement": "IC50", "result": 43, "unit": "nM"}]}, {"smiles": "CC#CC(=O)N1CCCC12CCN(c1nc(-c3ccc(Oc4ccccc4)cc3)c(C(N)=O)s1)CC2", "note": "[Example 24]", "values": [{"measurement": "IC50", "result": 150, "unit": "nM"}]}, {"smiles": "CC#CC(=O)N1CCN(c2nc(-c3ccc(Oc4ccccc4)cc3)c(C(N)=O)s2)CC1C", "note": "(stereo not shown) [Example 25]", "values": [{"measurement": "IC50", "result": 1, "unit": "nM"}]}, {"smiles": "CN(C)CCC(=O)N1CCN(c2nc(-c3ccc(Oc4ccccc4)cc3)c(C(N)=O)s2)CC1", "note": "[Example 26]", "values": [{"measurement": "IC50", "result": 69, "unit": "nM"}]}, {"smiles": "C=CC(=O)N1CCN(c2nc(-c3cnn(Cc4ccccc4)c3)c(C(N)=O)s2)CC1", "note": "[Example 27]", "values": [{"measurement": "IC50", "result": 710, "unit": "nM"}]}, {"smiles": "CC#CC(=O)N1CCN(c2nc(-c3cnn(Cc4ccccc4)c3)c(C(N)=O)s2)CC1", "note": "[Example 28]", "values": [{"measurement": "IC50", "result": "> 1000", "unit": "nM"}]}, {"smiles": "C=CC(=O)N1CCN(c2nc(-c3ccc(Br)cc3)c(C(N)=O)s2)CC1", "note": "[Example 29]", "values": [{"measurement": "IC50", "result": 6.6, "unit": "nM"}]}, {"smiles": "CC#CC(=O)N1CCN(c2nc(-c3ccc(Br)cc3)c(C(N)=O)s2)CC1", "note": "[Example 30]", "values": [{"measurement": "IC50", "result": 73, "unit": "nM"}]}, {"smiles": "CCC(=O)N1CC2(C1)CN(c1nc(-c3ccc(Oc4ccccc4)cc3)c(C(N)=O)s1)C2", "note": "[Example 31]", "values": [{"measurement": "IC50", "result": "> 1000", "unit": "nM"}]}, {"smiles": "C=CC(=O)N1CCN(c2nc(-c3ccc(Oc4ccccc4)nc3)c(C(N)=O)s2)CC1", "note": "[Example 32]", "values": [{"measurement": "IC50", "result": 17, "unit": "nM"}]}, {"smiles": "CC#CC(=O)N1CCN(c2nc(-c3ccc(Oc4ccccc4)nc3)c(C(N)=O)s2)CC1", "note": "[Example 33]", "values": [{"measurement": "IC50", "result": 180, "unit": "nM"}]}, {"smiles": "C/C=C/C(=O)N1CCN(c2nc(-c3ccc(Oc4ccccc4)nc3)c(C(N)=O)s2)CC1", "note": "[Example 34]", "values": [{"measurement": "IC50", "result": 700, "unit": "nM"}]}, {"smiles": "C=CC(=O)NC[C@@H]1CCCN1c1nc(-c2ccc(Oc3ccccc3)cc2)c(C(N)=O)s1", "note": "[Example 35]", "values": [{"measurement": "IC50", "result": 11, "unit": "nM"}]}, {"smiles": "CC#CC(=O)NC[C@@H]1CCCN1c1nc(-c2ccc(Oc3ccccc3)cc2)c(C(N)=O)s1", "note": "[Example 36]", "values": [{"measurement": "IC50", "result": 14, "unit": "nM"}]}, {"smiles": "CC(C)(O)C#CC(=O)N1CCN(c2nc(-c3ccc(Oc4ccccc4)cc3)c(C(N)=O)s2)CC1", "note": "[Example 37]", "values": [{"measurement": "IC50", "result": 0.65, "unit": "nM"}]}, {"smiles": "CC#CC(=O)N1CCN(c2nc(-c3ccc(S(C)(=O)=O)cc3)c(C(N)=O)s2)CC1", "note": "[Example 38]", "values": [{"measurement": "IC50", "result": "> 1000", "unit": "nM"}]}, {"smiles": "NC(=O)c1sc(N2CCN(C(=O)C#CCO)CC2)nc1-c1ccc(Oc2ccccc2)cc1", "note": "[Example 39]", "values": [{"measurement": "IC50", "result": 0.69, "unit": "nM"}]}, {"smiles": "C=CC(=O)NC[C@H]1CCCN1c1nc(-c2ccc(Oc3ccccc3)cc2)c(C(N)=O)s1", "note": "[Example 40]", "values": [{"measurement": "IC50", "result": 120, "unit": "nM"}]}, {"smiles": "CC#CC(=O)NC[C@H]1CCCN1c1nc(-c2ccc(Oc3ccccc3)cc2)c(C(N)=O)s1", "note": "[Example 41]", "values": [{"measurement": "IC50", "result": 30, "unit": "nM"}]}, {"smiles": "NC(=O)c1sc(N2CCN(C(=O)C#CCN3CCOCC3)CC2)nc1-c1ccc(Oc2ccccc2)cc1", "note": "[Example 42]", "values": [{"measurement": "IC50", "result": 0.7, "unit": "nM"}]}, {"smiles": "CN(C)C/C=C/C(=O)NC[C@@H]1CCCN1c1nc(-c2ccc(Oc3ccccc3)cc2)c(C(N)=O)s1", "note": "[Example 43]", "values": [{"measurement": "IC50", "result": 52, "unit": "nM"}]}, {"smiles": "CN(C)C/C=C/C(=O)NC[C@H]1CCCN1c1nc(-c2ccc(Oc3ccccc3)cc2)c(C(N)=O)s1", "note": "[Example 44]", "values": [{"measurement": "IC50", "result": 560, "unit": "nM"}]}, {"smiles": "CC#CC(=O)N1CCN(c2nc(-c3ccc(Oc4ccccc4)cn3)c(C(N)=O)s2)CC1", "note": "[Example 45]", "values": [{"measurement": "IC50", "result": 40, "unit": "nM"}]}, {"smiles": "CC#CC(=O)N1CCN(c2nc(-c3cccc(C(=O)Nc4ccccc4)c3)c(C(N)=O)s2)CC1", "note": "[Example 46]", "values": [{"measurement": "IC50", "result": "> 1000", "unit": "nM"}]}]}
